Earlier results in US6967217B1, “Process and composition for enhancing the action of vitamin a on the cellular activity of an individual, and use of vitamin c” (Natura Cosmetico S.A., priority 1998, dated 2005).

Tested on: wrinkles
Details: Retinol 0.034%; men and women with age between 22 and 34 years

CC1=C(/C=C/C(C)=C/C=C/C(C)=C/CO)C(C)(C)CCC1 [Retinol]
effect on wrinkles: reduce the amount and the deepness of wrinkles
